# In ChEMBL document CHEMBL3885881, “DrugMatrix”:
# Species on record: Rattus norvegicus
# Experiment: DrugMatrix - Regimen: Daily Repeat
# Format: toxicity, organism-based, Sprague-Dawley
# Set-up: regimen Daily Repeat, gender Male, age 6-8 weeks
# Conditions: in vivo, po, route oral GAVAGE, vehicle .5 % CMC; for BASOPHIL / EOSINOPHIL / ERYTHROCYTE COUNT / HEMATOCRIT / HEMOGLOBIN / LEUKOCYTE COUNT / LYMPHOCYTE / MEAN CORPUSCULAR HEMOGLOBIN / MEAN CORPUSCULAR HEMOGLOBIN CONCENTRATION / MEAN CORPUSCULAR VOLUME / MONOCYTE / NEUTROPHIL / PLATELET COUNT: tissue Blood; for ALANINE AMINOTRANSFERASE / ALBUMIN / ALKALINE PHOSPHATASE / ASPARTATE AMINOTRANSFERASE / BLOOD UREA NITROGEN / CHLORIDE / CHOLESTEROL / CREATINE PHOSPHOKINASE / CREATININE / GLUCOSE / PHOSPHORUS / POTASSIUM / SODIUM / TOTAL BILIRUBIN / TOTAL PROTEIN: tissue Plasma
# [1] = 0 mg/kg, 72 h, dose level Control, time 3 day
# [2] = 0 mg/kg, 120 h, dose level Control, time 5 day
# [3] = 94 mg/kg, 72 h, dose level High, time 3 day
# [4] = 94 mg/kg, 120 h, dose level High, time 5 day
# [5] = […], 72 h, dose 9.4 mg/Kg, dose level Low, time 3 day
# [6] = […], 120 h, dose 9.4 mg/Kg, dose level Low, time 5 day
smiles,measurement,setting,value
O=C(CCCN1CC=C(n2c(=O)[nH]c3ccccc32)CC1)c1ccc(F)cc1 [DROPERIDOL],BASOPHIL,[1],1.52%
same,EOSINOPHIL,[1],0.98%
same,ERYTHROCYTE COUNT,[1],6.96 x10E6/uL
same,HEMATOCRIT,[1],44.65%
same,HEMOGLOBIN,[1],13.62 G/DL
same,LEUKOCYTE COUNT,[1],9.83 x10E3/uL
same,LYMPHOCYTE,[1],76.48%
same,MEAN CORPUSCULAR HEMOGLOBIN,[1],19.57 pg
same,MEAN CORPUSCULAR HEMOGLOBIN CONCENTRATION,[1],30.47 G/DL
same,MEAN CORPUSCULAR VOLUME,[1],64.22 fL
same,MONOCYTE,[1],2.13%
same,NEUTROPHIL,[1],18.6%
same,PLATELET COUNT,[1],1217.17 x10E3/uL
same,ALANINE AMINOTRANSFERASE,[1],41 u/L
same,ALBUMIN,[1],3.77 G/DL
same,ALKALINE PHOSPHATASE,[1],411.83 u/L
same,ASPARTATE AMINOTRANSFERASE,[1],62.83 u/L
same,BLOOD UREA NITROGEN,[1],15.17 mg/dL
same,CHLORIDE,[1],104.33 MEQ/L
same,CHOLESTEROL,[1],71.17 mg/dL
same,CREATINE PHOSPHOKINASE,[1],123.5 u/L
same,CREATININE,[1],0.55 mg/dL
same,GLUCOSE,[1],182.67 mg/dL
same,PHOSPHORUS,[1],11.23 mg/dL
same,POTASSIUM,[1],7.03 MEQ/L
same,SODIUM,[1],148 MEQ/L
same,TOTAL BILIRUBIN,[1],0.57 mg/dL
same,TOTAL PROTEIN,[1],6.85 G/DL
same,BASOPHIL,[2],1.35%
same,EOSINOPHIL,[2],0.43%
same,ERYTHROCYTE COUNT,[2],6.96 x10E6/uL
same,HEMATOCRIT,[2],44.35%
same,HEMOGLOBIN,[2],13.98 G/DL
same,LEUKOCYTE COUNT,[2],9.45 x10E3/uL
same,LYMPHOCYTE,[2],80.83%
same,MEAN CORPUSCULAR HEMOGLOBIN,[2],20.1 pg
same,MEAN CORPUSCULAR HEMOGLOBIN CONCENTRATION,[2],31.52 G/DL
same,MEAN CORPUSCULAR VOLUME,[2],63.72 fL
same,MONOCYTE,[2],2.37%
same,NEUTROPHIL,[2],14.05%
same,PLATELET COUNT,[2],1298 x10E3/uL
same,ALANINE AMINOTRANSFERASE,[2],42.17 u/L
same,ALBUMIN,[2],3.77 G/DL
same,ALKALINE PHOSPHATASE,[2],419 u/L
same,ASPARTATE AMINOTRANSFERASE,[2],66.67 u/L
same,BLOOD UREA NITROGEN,[2],16.67 mg/dL
same,CHLORIDE,[2],103.17 MEQ/L
same,CHOLESTEROL,[2],66.33 mg/dL
same,CREATINE PHOSPHOKINASE,[2],148.33 u/L
same,CREATININE,[2],0.58 mg/dL
same,GLUCOSE,[2],196.83 mg/dL
same,PHOSPHORUS,[2],11.8 mg/dL
same,POTASSIUM,[2],6.47 MEQ/L
same,SODIUM,[2],148.33 MEQ/L
same,TOTAL BILIRUBIN,[2],0.53 mg/dL
same,TOTAL PROTEIN,[2],6.77 G/DL
same,BASOPHIL,[3],2.03%
same,EOSINOPHIL,[3],0.53%
same,ERYTHROCYTE COUNT,[3],7.81 x10E6/uL
same,HEMATOCRIT,[3],49.37%
same,HEMOGLOBIN,[3],15.57 G/DL
same,LEUKOCYTE COUNT,[3],13.33 x10E3/uL
same,LYMPHOCYTE,[3],87.57%
same,MEAN CORPUSCULAR HEMOGLOBIN,[3],20.1 pg
same,MEAN CORPUSCULAR HEMOGLOBIN CONCENTRATION,[3],31.57 G/DL
same,MEAN CORPUSCULAR VOLUME,[3],63.57 fL
same,MONOCYTE,[3],2.1%
same,NEUTROPHIL,[3],7%
same,PLATELET COUNT,[3],1484.33 x10E3/uL
same,ALANINE AMINOTRANSFERASE,[3],35.67 u/L
same,ALBUMIN,[3],4.03 G/DL
same,ALKALINE PHOSPHATASE,[3],335 u/L
same,ASPARTATE AMINOTRANSFERASE,[3],61.67 u/L
same,BLOOD UREA NITROGEN,[3],21.67 mg/dL
same,CHLORIDE,[3],102.33 MEQ/L
same,CHOLESTEROL,[3],79.67 mg/dL
same,CREATINE PHOSPHOKINASE,[3],112.67 u/L
same,CREATININE,[3],0.67 mg/dL
same,GLUCOSE,[3],149 mg/dL
same,PHOSPHORUS,[3],11.77 mg/dL
same,POTASSIUM,[3],7.13 MEQ/L
same,SODIUM,[3],148 MEQ/L
same,TOTAL BILIRUBIN,[3],0.6 mg/dL
same,TOTAL PROTEIN,[3],7.1 G/DL
same,BASOPHIL,[4],1.4%
same,EOSINOPHIL,[4],0.5%
same,ERYTHROCYTE COUNT,[4],8.34 x10E6/uL
same,HEMATOCRIT,[4],50.33%
same,HEMOGLOBIN,[4],16.1 G/DL
same,LEUKOCYTE COUNT,[4],13.23 x10E3/uL
same,LYMPHOCYTE,[4],84.5%
same,MEAN CORPUSCULAR HEMOGLOBIN,[4],19.37 pg
same,MEAN CORPUSCULAR HEMOGLOBIN CONCENTRATION,[4],32.03 G/DL
same,MEAN CORPUSCULAR VOLUME,[4],60.43 fL
same,MONOCYTE,[4],2.13%
same,NEUTROPHIL,[4],10.53%
same,PLATELET COUNT,[4],1440.33 x10E3/uL
same,ALANINE AMINOTRANSFERASE,[4],53 u/L
same,ALBUMIN,[4],3.87 G/DL
same,ALKALINE PHOSPHATASE,[4],248 u/L
same,ASPARTATE AMINOTRANSFERASE,[4],83 u/L
same,BLOOD UREA NITROGEN,[4],23.33 mg/dL
same,CHLORIDE,[4],103 MEQ/L
same,CHOLESTEROL,[4],68 mg/dL
same,CREATINE PHOSPHOKINASE,[4],108.67 u/L
same,CREATININE,[4],0.67 mg/dL
same,GLUCOSE,[4],160.67 mg/dL
same,PHOSPHORUS,[4],12.3 mg/dL
same,POTASSIUM,[4],7.17 MEQ/L
same,SODIUM,[4],149 MEQ/L
same,TOTAL BILIRUBIN,[4],0.67 mg/dL
same,TOTAL PROTEIN,[4],6.93 G/DL
same,BASOPHIL,[5],1.77%
same,EOSINOPHIL,[5],0.47%
same,ERYTHROCYTE COUNT,[5],7.08 x10E6/uL
same,HEMATOCRIT,[5],45.83%
same,HEMOGLOBIN,[5],14.3 G/DL
same,LEUKOCYTE COUNT,[5],15.23 x10E3/uL
same,LYMPHOCYTE,[5],83.7%
same,MEAN CORPUSCULAR HEMOGLOBIN,[5],20.13 pg
same,MEAN CORPUSCULAR HEMOGLOBIN CONCENTRATION,[5],31.1 G/DL
same,MEAN CORPUSCULAR VOLUME,[5],64.77 fL
same,MONOCYTE,[5],1.6%
same,NEUTROPHIL,[5],11.93%
same,PLATELET COUNT,[5],1499.67 x10E3/uL
same,ALANINE AMINOTRANSFERASE,[5],36.67 u/L
same,ALBUMIN,[5],3.67 G/DL
same,ALKALINE PHOSPHATASE,[5],351.67 u/L
same,ASPARTATE AMINOTRANSFERASE,[5],62.33 u/L
same,BLOOD UREA NITROGEN,[5],14 mg/dL
same,CHLORIDE,[5],103.67 MEQ/L
same,CHOLESTEROL,[5],70.33 mg/dL
same,CREATINE PHOSPHOKINASE,[5],125.33 u/L
same,CREATININE,[5],0.6 mg/dL
same,GLUCOSE,[5],162.33 mg/dL
same,PHOSPHORUS,[5],12.83 mg/dL
same,POTASSIUM,[5],7.2 MEQ/L
same,SODIUM,[5],147.67 MEQ/L
same,TOTAL BILIRUBIN,[5],0.5 mg/dL
same,TOTAL PROTEIN,[5],6.57 G/DL
same,BASOPHIL,[6],2.17%
same,EOSINOPHIL,[6],0.4%
same,ERYTHROCYTE COUNT,[6],6.89 x10E6/uL
same,HEMATOCRIT,[6],44.3%
same,HEMOGLOBIN,[6],14.03 G/DL
same,LEUKOCYTE COUNT,[6],11 x10E3/uL
same,LYMPHOCYTE,[6],83.27%
same,MEAN CORPUSCULAR HEMOGLOBIN,[6],20.4 pg
same,MEAN CORPUSCULAR HEMOGLOBIN CONCENTRATION,[6],31.7 G/DL
same,MEAN CORPUSCULAR VOLUME,[6],64.43 fL
same,MONOCYTE,[6],2.07%
same,NEUTROPHIL,[6],11.2%
same,PLATELET COUNT,[6],1298.67 x10E3/uL
same,ALANINE AMINOTRANSFERASE,[6],37.67 u/L
same,ALBUMIN,[6],3.63 G/DL
same,ALKALINE PHOSPHATASE,[6],359 u/L
same,ASPARTATE AMINOTRANSFERASE,[6],62.33 u/L
same,BLOOD UREA NITROGEN,[6],13.33 mg/dL
same,CHLORIDE,[6],101.33 MEQ/L
same,CHOLESTEROL,[6],65 mg/dL
same,CREATINE PHOSPHOKINASE,[6],109 u/L
same,CREATININE,[6],0.5 mg/dL
same,GLUCOSE,[6],191 mg/dL
same,PHOSPHORUS,[6],12.2 mg/dL
same,POTASSIUM,[6],7.17 MEQ/L
same,SODIUM,[6],147.33 MEQ/L
same,TOTAL BILIRUBIN,[6],0.3 mg/dL
same,TOTAL PROTEIN,[6],6.4 G/DL
